Patent US6521590B1, “Biocidal proteins” (priority 1991, dated 2003)
Where no end group is shown, it is not given here.

Legend:
[1] = Chitin micro-column binding; conditions: washed at pH 7, desorbed with 100 mM acetic acid (pH 2.8), SDS-PAGE
[2] = system: Phytophthora infestans; format: cell-based
[3] = system: B cinerea; test: Effect of ions on antifungal activity (synthetic growth medium); format: cell-based, Botrytis cinerea; conditions: for increase of the IC50 values with CaCl2 at 1 mM: reference medium + 1 mM CaCl2; for effect of KCl at 10 mM on the dose-response curves: reference medium + 10 mM KCl; for increase of the IC50 values with KCl at 50 mM: reference medium + 50 mM KCl
[4] = system: Botrytis cinerea MUCL 30158; format: cell-based
[5] = system: Alternaria brassicola MUCL 20297; format: cell-based
[6] = system: Verticillium dahliae MUCL 19210; format: cell-based
[7] = system: Colletotrichum lindemuthianum MUCL 9577; format: cell-based
[8] = system: Venturia inaegualis MUCL 15927; format: cell-based
[9] = system: Cercospora beticola strain K897; format: cell-based
[10] = system: Ascochyta pisi MUCL 30164; format: cell-based
[11] = system: Fusarium oxysporum f.sp. pisi IMI 236441; format: cell-based
[12] = system: Fusarium culmorum; format: physicochemical
Procedure: Tests for antifungal activity were performed with 20 μl samples diluted five-fold with growth medium containing Fusarium culmorum spores, according to the assay method given in Example 1. untreated control samples consisted of the test proteins at 500 μg/ml in 10 mM sodium phosphat buffer (pH 7). For digestions, different proteases were added at 100 μg/ml and incubated at 37° C. for 16 hours. Heat stability tests were performed by heating aliquots of the test proteins for 10 minutes at different temperatures up to 100° C. pH stability was tested by incubation of test proteins for 1 hour in either 20 mM glycine-HCl (pH 2) or glycine-NaOH (pH 11) and subsequent dialysis for 16 hours against 10 mM sodium phosphate buffer (pH 7) using benzoylated cellulose tubing. Reduction of dishulphide bridges was done by addition of DTE at 30 mM and Tris-HCl (pH 8.6) at 300 mM. The reagents were removed by reversed-phase chromatography. For digestions, different proteases were added at 200 μg/ml and incubated at 37° C. for 3 hours.

[13] = system: Pyricularia oryzae MUCL 30166; format: cell-based
[14] = system: Phoma betae MUCL 9916; format: cell-based
[15] = system: plant pathogenic fungi; format: cell-based
[16] = system: Verticillium albo-atrum (K0937); format: cell-based
[17] = system: Fusarium oxysporum f.sp. lycopersici MUCL 909; format: cell-based
[18] = system: Rhizoctonia solani CBS 207-84; format: cell-based
[19] = system: Saccharomyces cerevisiae JRY188; conditions: S cerevisiae
Procedure: Routinely, tests were performed with 20 μl of a (filter-sterilized) test solution and 80 μl of a fungal spore suspension (2×10^4 spores/ml) or mycelium fragments in either half strength potato dextrose broth (medium A) or half strength potato dextrose broth with CaCl2 and KCl added to final concentrations of 1 mM and 50 mM respectively (medium B). For experiments on the antagonistic effect of cations, a synthetic growth medium was used instead of Potato Dextrose Broth. […] Control microcultures contained 20 μl of sterile distilled water and 80 μl of the fungal spore suspension.
Unless otherwise stated the test organism was Fusarium culmorum (strain IMI 180420) and incubation was carried out at 25° C. for 48 hours. Percent growth inhibition is defined as 100 times the ratio of the corrected absorbance of the control microculture minus the corrected absorbance of the test microculture over the corrected absorbance at 595 nm of the control microculture. The corrected absorbance values equal the absorbance at 595 nm of the culture measured after 48 hours minus the absorbance at 595 nm measured after 30 min. […] The antifungal activity (units per ml) is calculated as 50 times the dilution factor of a test solution at which 50% growth inhibition is obtained under the given assay conditions.
Antibacterial activity was measured microspectrophotometrically as follows. […]

[20] = system: Fusarium culmorum IMI 180420; format: cell-based
[21] = system: Pyrenophora tritici-repentis MUCL 30217; format: cell-based
[22] = system: Nectria haematococca Collection Van Etten 160-2-2; format: cell-based
[23] = system: Penicillium digitatum (K0879); format: cell-based
[24] = system: Trichoderma viride (K1127); format: cell-based

Substance: Ac-AMP1: Antimicrobial protein from Amaranthus caudatus seeds, 29 residues, dimer of two identical 3 kDa subunits (SEQ ID NO: 5) (VGECVRGRCPSGMCCSQFGYCGKGPKYCG; cysteine pairing not given here; also: dimer of two identical subunits)
- affinity toward chitin [1]: exhibit affinity toward chitin
- IC50 [2]: 12 µg/mL
- increase of the IC50 values with CaCl2 at 1 mM [3]: five to six-fold
- effect of KCl at 10 mM on the dose-response curves [3]: did not significantly affect the dose-response curves
- increase of the IC50 values with KCl at 50 mM [3]: about three-fold

Substance: Ac-AMP2: Antimicrobial protein from Amaranthus caudatus seeds, 30 residues, Ac-AMP1 plus a carboxyl-terminal arginine (SEQ ID NO: 6) (VGECVRGRCPSGMCCSQFGYCGKGPKYCGR; not fully specified; cysteine pairing not given here)
- IC50 [4]: 8 µg/mL
- IC50 [5]: 4 µg/mL
- IC50 [6]: 5 µg/mL
- IC50 [7]: 8 µg/mL
- affinity toward chitin [1]: exhibit affinity toward chitin
- IC50 [8]: 3 µg/mL
- IC50 [9]: 0.8 µg/mL
- IC50 [10]: 8 µg/mL
- increase of the IC50 values with CaCl2 at 1 mM [3]: five to six-fold
- effect of KCl at 10 mM on the dose-response curves [3]: did not significantly affect the dose-response curves
- increase of the IC50 values with KCl at 50 mM [3]: about three-fold

Substance: Ca-AMP1: Antimicrobial protein purified from seeds of Capsicum annuum (SEQ ID NO: 15) (QEQCGNQAGGRACANRLCCSQYGYCGSTRAYCGVGCQSNCGR)
- IC50 (μg/ml) Medium A [11]: >500 µg/mL
- IC50 (μg/ml) Medium B [11]: >500 µg/mL
- antifungal activity after chymotrypsin treatment ([12]; chymotrypsin digestion, 37° C.): no affect on activity
- antifungal activity after heat treatment ([12]; heating for 10 minutes at different temperatures up to 100° C.): resistant to heat treatment at up to 80 °C for 10 minutes
- reduction of antifungal activity after pronase E treatment ([12]; pronase E digestion, 37° C.): at least 10 fold
- reduction of antifungal activity after proteinase K treatment ([12]; proteinase K digestion, 37° C.): at least 10 fold
- antifungal activity after reduction of disulphide bonds ([12]; reduction by DTE / dithiothreitol): completely abolished the antifungal activity
- reduction of antifungal activity after trypsin treatment ([12]; trypsin digestion, 37° C.): 2 fold
- IC50 (μg/ml) Medium B [4]: >500 µg/mL
- IC50 (μg/ml) Medium A [13]: 5 µg/mL
- IC50 (μg/ml) Medium B [13]: >500 µg/mL
- IC50 (μg/ml) Medium A [14]: 300 µg/mL
- IC50 (μg/ml) Medium B [14]: >500 µg/mL
- number of pathogenic fungi with IC50 value below 10 μg/ml [15]: 10 of the fungi
- IC50 (μg/ml) Medium B [5]: >500 µg/mL
- IC50 (μg/ml) Medium A [6]: 6 µg/mL
- IC50 (μg/ml) Medium B [6]: >500 µg/mL
- IC50 (μg/ml) Medium A [7]: 50 µg/mL
- IC50 (μg/ml) Medium B [7]: >500 µg/mL
- affinity toward chitin [1]: exhibits affinity to chitin
- IC50 (μg/ml) Medium B [16]: >500 µg/mL
- IC50 (μg/ml) Medium A [17]: 300 µg/mL
- IC50 (μg/ml) Medium B [17]: >500 µg/mL
- IC50 (μg/ml) Medium B [9]: 200 µg/mL
- IC50 (μg/ml) Medium A [18]: 8 µg/mL
- IC50 (μg/ml) Medium B [18]: >500 µg/mL
- IC50 (μg/ml) Medium B [10]: >500 µg/mL
- IC50 [19]: 30 µg/mL
- IC50 (μg/ml) Medium A [20]: 4 µg/mL
- IC50 (μg/ml) Medium B [20]: >500 µg/mL
- morphological changes in partially inhibited fungal spores [20]: severe branching of the emerging hyphal tips
- IC50 (μg/ml) Medium A [21]: 70 µg/mL
- IC50 (μg/ml) Medium B [21]: >500 µg/mL
- IC50 (μg/ml) Medium A [22]: 4 µg/mL
- IC50 (μg/ml) Medium B [22]: >500 µg/mL
- IC50 (μg/ml) Medium B [23]: >500 µg/mL
- IC50 (μg/ml) Medium A [24]: 200 µg/mL
- IC50 (μg/ml) Medium B [24]: >500 µg/mL
